Experimental data taken from patent US20060167229A1, “Biologically active peptide conjugates” (priority 2002, published 2006).
Marks after values point to notes of the source that are not given here. Ends that are not written are not given here.

B1: IFN-γ: recombinant mouse IFN-γ (rmIFN-γ), Beijing Biotech Inc.; positive control (protein, UniProt P01580 23-155, looked up)
Interferon gamma: HGTVIESLESLNNYFNSSGIDVEEKSLFLDIWRNWQKDGDMKILQSQIISFYLRLFEVLKDNQAISNNISVIESHLITTFFSNSKAKKDAFMSIAKFEVNNPQVQRQAFNELIRVVHQLLPESSLRKRKRSRC

What was measured:
[1] = system: Sheep red blood cells (SRBC); assay: Humoral immunity (SRBC hemolysis index) of mice bearing transplanted B16 melanoma; type: in vivo, C57BL/6 mice; design: key: index = (OD540 sample ÷ reference OD540) × 500; conditions: saline 19.0 ± 9.1
Procedure: Intraperitoneal injection, once per day. […] Treatment of all groups with testing substance lasted for 30 days or until the animal died unless otherwise specified.
Stock B16 mouse melanoma cells were incubated in DMEM/F12 medium supplemented with 10% fetal bovine serum, 37° C./5% CO2 for 72 hrs, then washed 3-4 times with Hank's solution. The cell concentration was adjusted to 1×10^5 per ml with Hank's solution and 0.1 ml of the cell suspension was injected via the tail vein into the testing mice to generate the B16 melanoma bearing animal model. Treatment with test substance started as described in section Method 1.
Sheep red blood cells (SRBC) were prepared by collecting blood from the cervical vein and put into a sterile flask with glass beads. The flask was shaken for 3 minutes and the blood then mixed with Alsever solution (glucose 2.05 g, NaCl 0.4 g, […] 0.8 g, adjust to 100 ml with distilled water) and stored at 4° C. Immediately before use, samples were centrifuged at 130 g, 5 minutes to collect the SRBC. The cells were washed two times by re-suspension and centrifugation in normal saline. Then the cell pellet was collected by centrifugation at 180 g for 10 minutes and re-suspended in saline to make the final working SRBC suspension, 2% (v/v).
Complement was prepared by adding 10 volumes of fresh Cavy serum into one volume centrifuge packed SRBC, and then gently shaken for 30 minutes at 4° C. The SRBC was removed by centrifugation at 200 g for 10 minutes. 10 volumes of normal saline were added to obtain the working complement solution.
On the testing animals, on the 27th date of test substance treatment, 0.2 ml of the working SRBC cell suspension was injected into each animal to raise antibody. On the day after the last test substance administration, blood was collected from the eye canthus and left at room temperature for one hour for serum exudation. After centrifugation at 200 g for 10 minutes, the collected serum was diluted by 500 times with normal saline.
To 1 ml diluted mouse serum of each mouse, 0.5 ml SRBC suspension was added. Ice cold. Then 1 ml working complement solution was added and incubated at 37° C. water bath for 10 minutes. Reactions were terminated by ice cold. Samples were then centrifuged at 200 g for 10 minutes to obtain the supernatant.
To 1 ml of this supernatant, 3 ml Drabkin solution was added and left at room temperature for 10 minutes. OD540 nm was obtained.
Reference OD540 nm was obtained by mixing 0.25 ml SRBC suspension with Drabkin solution to 4 ml and placed at room temperature for 10 minutes before OD540 nm was taken. Hemolysis index=(OD540 nm of test sample÷reference OD540 nm)×500 6.2 After the Humoral Immunity Study, the Mice were Killed by Cervical Vertebra Dislocation. Postmortem Examination of the Animals was Performed. The Pathological Changes were Recorded, and the Numbers of Melanoma Lung Metastasis Foci Were Counted. Results

[2] = system: spleen; assay: Immunity organ weight test, spleen index; type: in vivo, BALB/c mice; conditions: for weight of spleen (spleen index), X ± SD (%): healthy mice, saline 0.53 ± 0.05; for effect on the weight of the spleen (summary): statistically significant difference from saline in any of the dosage groups 0.5-500 μg/kg/day
Procedure: One day after the last test substance administration (day 16), the liver, spleen, and thymus gland were separated and blotted dry with filter paper and weighed. The phagocytosis index α was calculated as below: α=(^3√{square root over ( )}K)(W÷WLS)
Spleen index (%)=(spleen weight/body weight)×100%

[3] = system: T lymphocyte; assay: T lymphocyte transformation test (ConA-stimulated spleen cells of treated mice, MTT); type: in vivo, BALB/c mice; conditions: for X ± SD (stimulation index): healthy mice, saline 1.3 ± 0.1; for effect on T lymphocyte transformation (summary): statistically significant difference from saline in any of the dosage groups 0.5-500 μg/kg/day
Procedure: The above substances were all dissolved in 0.5 ml saline and injected intraperitoneal (i.p.) for 15 continuous days, once per day.
Ten mice per group. The day after the last test substance administration, the mice were sacrificed by cervical dislocation. The spleen was isolated aseptically and manually dispersed in cold D-Hank's solution using an injection needle. The dispersed cell suspension was further sieved through a 100 gauge 150 μm diameter stainless steel sieve. After centrifugation at 200 g for 10 minutes, the supernatant was discarded. The cell pellet was re-suspended in 10 volume of Tris-NH4Cl buffer and then kept standing still for 10 minutes at room temperature. The suspended cells were collected by centrifugation at 150 g for 10 minutes. The cells were washed 2-4 times with cold D-Hank's solution by re-suspending and collecting by centrifugation with condition as described above. The washed cells were then diluted to the desired cell densities by RPMI-1640 culture medium, containing 10% fetal bovine serum.
Spleen cells of density 1×10^6/ml were placed onto a 96 wells cell culture plate, 100 μL/well, three parallel wells each of the assay sample and control sample per mouse. To the assay wells, 100 μl/well ConA of 100 μg/ml in RPMI-1640 was added, and […] plain RPMI-1640 was used for the controls. The cells were incubated for 66 hrs at 37° C., 5% CO2. The cells were then pelleted by centrifugation at 150 g for 10 minutes.
50 μl/well MTT of 1 mg/ml in RPMI-1640 was added to the cell pellet and the cells re-suspended by shaking for 2 minutes. The incubation was continued for 4 hours. The supernatant was discarded after centrifugation at 150 g for 10 minutes. 120 μl 40 mM HCl-2-propanol was added to the cell pellet and shaken for 3 minutes. […]
Each mouse formed three assay wells and three control wells. The Stimulation Index (SI) of each mouse was obtained by first deriving the average OD of the three parallel wells, then dividing the value of the assay wells by the control wells.

[4] = Table 28, peptide 5 μg/kg/day (so in the source) i.p. 15 days (IFN-γ, IL-2 3×10^5 IU/kg/day)
[5] = peptide 0.5 μg/kg/day i.p. 15 days (IFN-γ, IL-2 3×10^5 IU/kg/day)
[6] = peptide 500 μg/kg/day i.p. 15 days (IFN-γ, IL-2 3×10^5 IU/kg/day)
[7] = peptide 500 μg/kg/day i.p. 15 days
[8] = peptide 5 μg/kg/day i.p. 15 days (IFN-γ, IL-2 3×10^5 IU/kg/day)
[9] = peptide 50 μg/kg/day i.p. 15 days (IFN-γ, IL-2 3×10^5 IU/kg/day)

Molecule | Hemolysis index ([1]; dose 0.5 μg/kg) | Hemolysis index ([1]; dose 5 μg/kg) | Hemolysis index ([1]; dose 50 μg/kg) | Hemolysis index ([1]; dose 500 μg/kg) | weight of spleen (spleen index), X ± SD (%) [2, 4] [%] | effect on the weight of the spleen (summary) [2] | X ± SD (stimulation index) [3, 5] | X ± SD (stimulation index) [3, 6] | effect on T lymphocyte transformation (summary) [3] | weight of spleen (spleen index), X ± SD (%) [2, 7] [%] | X ± SD (stimulation index) [3, 8] | X ± SD (stimulation index) [3, 9] | weight of spleen (spleen index), X ± SD (%) ([2]; Table 30, peptide 5 μg/kg/day i.p. 15 days) | weight of spleen (spleen index), X ± SD (%) [2, 5] | Hemolysis index ([1]; controls: rhIL-2, rmIFN-γ 3 × 10^5 IU/kg, cyclophosphamide 20 mg/kg)
VAPEEHPTLLTEAPLNPK [CMS010] | 34.9 ± 10.5*^$ | 51.0 ± 14.6*^$ | 39.6 ± 7.7*^$ | 50.1 ± 16.7*^$ | 0.38 ± 0.05 | decrease | 1.7 ± 0.3 | 2.0 ± 0.3*^@^ | enhance | – | – | – | – | – | –
FNFVPP [CMS003] | 61.6 ± 26.9*^$ | 37.2 ± 15.9*^$ | 38.7 ± 13.5*^$ | 35.9 ± 13.0*^$ | – | decrease | – | – | enhance | 0.40 ± 0.04 | 1.6 ± 0.2 | 2.2 ± 0.5*^@^ | – | – | –
VGMGQKDSY | 42.0 ± 12.0*^$ | 35.4 ± 15.1*^$ | 28.3 ± 7.6 | – | – | increase | – | 1.8 ± 0.3 | enhance | 0.63 ± 0.08 | – | – | – | – | –
Pro Ser Ile Vat Gly Arg Pro Arg His Gln Gly Val Met (PSIVGRPRHQGVM; listed as Sus scrofa) [CMS015] | – | – | – | – | – | decrease | – | 1.9 ± 0.3*^@^ | enhance | 0.36 ± 0.07 | – | – | 0.38 ± 0.15 | – | –
VGMGQKDSYV [CMS020] | – | – | – | – | – | increase | – | – | – | – | – | – | – | 0.68 ± 0.09*^@^ % | –
LRVAPQQHPTL [CMS009] | – | – | – | – | – | decrease | – | 1.7 ± 0.2 | enhance | 0.41 ± 0.03 | – | – | – | – | –
Tyr Ser Leu (YSL; listed as Sus scrofa) [CMS024] | 43.0 ± 10.7*^$ | 42.2 ± 11.8*^$ | 27.8 ± 9.1 | 30.1 ± 10.0 | – | decrease | – | – | – | 0.34 ± 0.05 | – | – | – | – | –
LGMQACGIHETTY [CMS012] | – | – | – | – | – | – | – | 1.6 ± 0.2 | enhance | – | – | – | – | – | –
IGMESAGIHETTY [CMS016] | – | – | – | 43.3 ± 29.9 | – | – | – | – | – | – | – | – | – | – | –
Phe Val Asn Asp (FVND; listed as Sus scrofa) [CMS035] | – | 38.9 ± 21.2*^$ | 44.7 ± 22.7*^$ | 40.5 ± 25.8 | – | – | – | – | – | – | – | – | – | – | –
KAVGHLDDLPGAL [CMS008] | 42.7 ± 18.4*^$ | 38.9 ± 12.0*^$ | 37.1 ± 16.7*^$ | 50.1 ± 17.8*^$ | 0.39 ± 0.08 | decrease | 1.7 ± 0.3 | 1.7 ± 0.1 | enhance | – | – | – | – | – | –
Pro Gln Asn Phe (PQNF; printed: Pro Gln Asn Phe) [CMS034] | 50.8 ± 18.4*^$ | 43.0 ± 11.7*^$ | 30.2 ± 10.9 | – | – | – | – | – | enhance | – | 1.5 ± 0.2 | – | – | – | –
PTTKTYFPHF [CMS001] | 51.0 ± 16.2*^$ | 41.3 ± 17.7*^$ | 45.0 ± 31.9*^$ | 36.0 ± 10.2*^$ | – | decrease | – | – | enhance | 0.43 ± 0.07 | 1.7 ± 0.2 | 2.2 ± 0.5*^@^ | – | 0.40 ± 0.05 % | –
RVAPQQHPTL [CMS011] | 32.0 ± 14.7 | – | – | 34.4 ± 19.4 | – | decrease | 1.6 ± 0.4 | – | enhance | 0.41 ± 0.04 | – | – | – | – | –
B1 | – | – | – | – | 0.50 ± 0.04 | – | 1.6 ± 0.2 | 1.6 ± 0.2 | – | – | 1.6 ± 0.2 | 1.7 ± 0.2 | – | 0.50 ± 0.04% | 60.5 ± 17.4
